Measurements from patent publication US20120083522A1, “MODULATION OF INFLAMMATORY RESPONSES BY FACTOR XI” (Isis Pharmaceuitcals, inc., priority 2009, published 2012).
In the oligonucleotide strings, read from the 5' end, every base follows the letter of its sugar. An asterisk marks phosphorothioate; unmarked linkages are phosphodiester. Other units and linkages are bracketed, terminal groups are in braces. A string of capitals states the bases alone. e = 2'-O-(2-methoxyethyl) (MOE); [5mC] = 5-methylcytosine; d = 2'-deoxy (DNA)

Tests used:
[1] = system: human Factor XI mRNA; test: Dose-dependent antisense inhibition in HepG2 cells, lipofectin (Example 2); type: cell-based; details: approximately 16 hours
Experimental: Cells were plated at a density of 10,000 cells per well and transfected using lipofectin reagent with 9.375 nM, 18.75 nM, 37.5 nM, 75 nM, and 150 nM concentrations of antisense oligonucleotide, as specified in Table 3. After a treatment period of approximately 16 hours, RNA was isolated from the cells and Factor XI mRNA levels were measured by quantitative real-time PCR. Human Factor XI primer probe set RTS 2966 (forward sequence: […], incorporated herein as SEQ ID NO: 3; reverse sequence: […], incorporated herein as SEQ ID NO: 4; probe sequence: TTGTCTACTGAAGCACACCCAAACAGGGAX, wherein X is the fluorophore, incorporated herein as SEQ ID NO: 5) was used to measure mRNA levels. Factor XI mRNA levels were adjusted according to total RNA content, as measured by RIBOGREEN®. Results are presented as percent inhibition of Factor XI, relative to untreated control cells.

[2] = system: human Factor XI mRNA; test: Dose-dependent inhibition in HepG2 cells, lipofectin (Example 4); type: cell-based; details: 16 hours
How it was run: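 Read-out was percent inhibition of Factor XI mRNA relative to untreated controls, by qRT-PCR (RTS 2966) adjusted for RIBOGREEN-measured total RNA. Cells received antisense oligonucleotide at 9.375 to 75 nM (four levels) via lipofectin. Treatment lasted approximately 16 hours, with plating at 10,000 cells per well.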

[3] = system: human Factor XI mRNA; test: Dose-dependent inhibition in HepG2 cells, electroporation (Example 4); type: cell-based; details: 16 hours
How it was run: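 HepG2 cells electroporated with 0.7, 2.2, 6.7 or 20 μM antisense gapmer and harvested after ~16 h. Factor XI mRNA quantified by qRT-PCR (primer probe set RTS 2966), normalised to total RNA (RIBOGREEN). Reported as percent inhibition versus untreated control cells.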

[4] = system: human Factor XI mRNA; test: Antisense inhibition in HepG2 cells by microwalk gapmers, 75 nM, lipofectin (Example 3); type: cell-based; details: HepG2 cells, 75 nM
How it was run: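 HepG2 cells (10,000 per well) were transfected with 75 nM gapmer using lipofectin and treated for about 24 h. Factor XI mRNA was quantified by real-time PCR, normalized to RiboGreen total RNA and expressed as percent inhibition versus untreated controls.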

[5] = system: human Factor XI mRNA; test: Antisense inhibition in HepG2 cells by microwalk gapmers, 8,000 nM, electroporation (Example 14); type: cell-based; details: HepG2 cells, 8,000 nM
Experimental: These microwalk gapmers were tested in vitro. Cultured HepG2 cells at a density of 20,000 cells per well were transfected using electroporation with 8,000 nM antisense oligonucleotide. After a treatment period of approximately 24 hours, RNA was isolated from the cells and Factor XI mRNA levels were measured by quantitative real-time PCR. Factor XI mRNA levels were adjusted according to total RNA content, as measured by RIBOGREEN. Results are presented as percent inhibition of Factor XI, relative to untreated control cells.
The chimeric antisense oligonucleotides in Table 51 were designed as 5-10-5 MOE, 5-8-5 and 6-8-6 MOE gapmers. The first two listed gapmers in Table 51 are the original gapmers (ISIS 416850 and ISIS 416858) from which ISIS 445493-445543 were designed via microwalk, and are designated by an asterisk. The 5-10-5 gapmers are 20 nucleotides in length, wherein the central gap segment is comprised of ten 2′-deoxynucleotides and is flanked on both sides (in the 5′ and 3′ directions) by wings comprising five nucleotides each. The 5-8-5 gapmers are 18 nucleotides in length, wherein the central gap segment is comprised of eight 2′-deoxynucleotides and is flanked on both sides (in the 5′ and 3′ directions) by wings comprising five nucleotides each. The 6-8-6 gapmers are 20 nucleotides in length, wherein the central gap segment is comprised of eight 2′-deoxynucleotides and is flanked on both sides (in the 5′ and 3′ directions) by wings comprising six nucleotides each. For each of the motifs (5-10-5, 5-8-5 and 6-8-6), each nucleotide in the 5′ wing segment and each nucleotide in the 3′ wing segment has a 2′-MOE modification. The internucleoside linkages throughout each gapmer are phosphorothioate (P═S) linkages. All cytidine residues throughout each gapmer are 5-methylcytidines. “Human Target start site” indicates the 5′-most nucleotide to which the gapmer is targeted in the human sequence. “Human Target stop site” indicates the 3′-most nucleotide to which the gapmer is targeted in the human sequence. Each gapmer listed in Table 51 is targeted to SEQ ID NO: 1 (GENBANK Accession No. NM_000128.3). Each gapmer is Table 51 is also fully cross-reactive with the rhesus monkey Factor XI gene sequence, designated herein as SEQ ID NO: 274 (exons 1-15 GENBANK Accession No. NW—001118167.1). ‘Rhesus monkey start site’ indicates the 5′-most nucleotide to which the gapmer is targeted in the rhesus monkey sequence. ‘Rhesus monkey stop site’ indicates the 3′-most nucleotide to which the gapmer is targeted to the rhesus monkey sequence.

[6] = Tolerability in Sprague-Dawley rats: hematology assays (Example 23); type: in vivo; design: RBC / WBC / Neutrophil / Lymphocyte / Platelets: unit not given here; details: blood

Row | Substance | percent inhibition of Factor XI ([1]; 9.375 nM) | percent inhibition of Factor XI ([1]; 18.75 nM) | percent inhibition of Factor XI ([1]; 37.5 nM) | percent inhibition of Factor XI ([1]; 75 nM) | percent inhibition of Factor XI ([1]; 150 nM) | percent inhibition of Factor XI mRNA, relative to untreated control cells ([2]; 9.375 nM) | percent inhibition of Factor XI mRNA, relative to untreated control cells ([2]; 18.75 nM) | percent inhibition of Factor XI mRNA, relative to untreated control cells ([2]; 37.5 nM) | percent inhibition of Factor XI mRNA, relative to untreated control cells ([2]; 75 nM) | percent inhibition of Factor XI mRNA, relative to untreated control cells ([3]; 0.7 μM) | percent inhibition of Factor XI mRNA, relative to untreated control cells ([3]; 2.2 μM) | percent inhibition of Factor XI mRNA, relative to untreated control cells ([3]; 6.7 μM) | percent inhibition of Factor XI mRNA, relative to untreated control cells ([3]; 20 μM) | % inhibition of human Factor XI mRNA levels ([4]; oligonucleotides targeted to nucleobases 738 to 762 of SEQ ID NO: 1) | Percent inhibition of human Factor XI mRNA levels [5] | % inhibition of human Factor XI mRNA levels ([4]; oligonucleotides targeted to nucleobases 1018 to 1042 of SEQ ID NO: 1) | % inhibition of human Factor XI mRNA levels ([4]; oligonucleotides targeted to nucleobases 1062 to 1091 of SEQ ID NO: 1) | RBC [6] | WBC [6]
1 | 412203 (antisense eA*eA*eT*eG*eT*d[5mC]*dT*dT*dT*dG*dT*dT*dG*d[5mC]*dA*eA*eG*e[5mC]*eG*e[5mC]) [compound 412203] | 29% | 15% | 61% | 77% | 82% | 33% | 40% | 62% | 74% | 11% | 60% | 70% | 91% | – | – | – | – | – | –
2 | 412206 (antisense e[5mC]*e[5mC]*eG*eT*eG*d[5mC]*dA*dT*d[5mC]*dT*dT*dT*d[5mC]*dT*dT*eG*eG*e[5mC]*eA*eT) [compound 412206] | 28% | 44% | 68% | 80% | 89% | 24% | 47% | 69% | 86% | 22% | 39% | 81% | 94% | 93% | 91% | – | – | – | –
3 | 412212 (antisense e[5mC]*e[5mC]*eG*eG*eG*dA*dT*dG*dA*dT*dG*dA*dG*dT*dG*e[5mC]*eA*eG*eA*eT) [compound 412212] | 28% | 45% | 59% | 73% | 88% | – | – | – | – | – | – | – | – | – | – | 89% | – | – | –
4 | 413467 (antisense eG*eG*eT*e[5mC]*e[5mC]*dA*d[5mC]*dA*dT*dA*dA*dA*dT*dG*dT*e[5mC]*eT*eT*eT*eG) [compound 413467] | 2% | 35% | 49% | 61% | 47% | 35% | 51% | 62% | 69% | 5% | 31% | 65% | 89% | – | – | – | – | – | –
5 | 413468 (antisense eG*eT*e[5mC]*eT*eA*dG*dG*dT*d[5mC]*d[5mC]*dA*d[5mC]*dA*dT*dA*eA*eA*eT*eG*eT) [compound 413468] | 14% | 34% | 56% | 78% | 75% | – | – | – | – | – | – | – | – | – | – | – | – | – | –
6 | 413469 (antisense eT*eG*e[5mC]*e[5mC]*e[5mC]*dT*dT*d[5mC]*dA*dT*dG*dT*d[5mC]*dT*dA*eG*eG*eT*e[5mC]*e[5mC]) [compound 413469] | 24% | 33% | 53% | 70% | 84% | – | – | – | – | – | – | – | – | – | – | – | – | – | –
7 | 413476 (antisense eT*eT*eG*eA*eG*dA*dT*dT*d[5mC]*dT*dT*dT*dG*dG*dG*e[5mC]*e[5mC]*eA*eT*eT) [compound 413476] | 26% | 44% | 64% | 73% | 82% | 24% | 58% | 62% | 77% | 40% | 69% | 88% | 93% | – | – | – | 93% | – | –
8 | ISIS 416848: gapmer of Table 8 (antisense e[5mC]*eA*e[5mC]*eA*eG*dT*dT*dT*d[5mC]*dT*dG*dG*d[5mC]*dA*dG*eG*e[5mC]*e[5mC]*eT*e[5mC]) | – | – | – | – | – | – | – | – | – | – | – | – | – | – | – | – | – | 6.0 | 17
9 | ISIS 416851: gapmer of Table 8 (antisense eG*eT*eG*e[5mC]*eA*d[5mC]*dA*dG*dT*dT*dT*d[5mC]*dT*dG*dG*e[5mC]*eA*eG*eG*e[5mC]) | – | – | – | – | – | – | – | – | – | – | – | – | – | – | – | – | – | 7.4 | 11
10 | ISIS 416852: gapmer of Table 8 (antisense eT*eG*eG*eT*eG*d[5mC]*dA*d[5mC]*dA*dG*dT*dT*dT*d[5mC]*dT*eG*eG*e[5mC]*eA*eG) | – | – | – | – | – | – | – | – | – | – | – | – | – | – | – | – | – | 7.2 | 13
